Where two headings read alike, the source gives them in different places. Starred links: 1 amine or outer side, 2 acyl side, 3 side chain; linkers in the order of their positions; H or OH if unused. Non-standard residues stand in square brackets, D forms with d. Residues, ends and D or L forms follow the SMILES beside them. Groups on a side chain read outwards from the residue. No end group written: not given here. *: point of attachment. C20 diacid = O=C(O)CCCCCCCCCCCCCCCCCCC(=O)*; C18 diacid = O=C(O)CCCCCCCCCCCCCCCCC(=O)*; αMePhe(2-F) = C[C@](N)(Cc1ccccc1F)C(=O)O; γGlu = O=C(O)[C@H](CCC(=O)[*:2])N[*:1]; αMe4Pal = C[C@](N)(Cc1ccncc1)C(=O)O; αMeY = C[C@](N)(Cc1ccc(O)cc1)C(=O)O; αMeF = C[C@](N)(Cc1ccccc1)C(=O)O; 4Pal = N[C@@H](Cc1ccncc1)C(=O)O; αMeL = CC(C)C[C@](C)(N)C(=O)O; αMeS = C[C@](N)(CO)C(=O)O; Orn = NCCC[C@H](N)C(=O)O; AEEA = NCCOCCOCC(=O)O; Aib = CC(C)(N)C(=O)O

Holding throughout (format): cell-based
The target in assay [1] is human GcgR (Homo sapiens, UniProt P47871). The experiment in a line: Functional cAMP activity in the presence of 1% HSA. To be noted: read-out: cAMP Rel EC50, hGcgR.
human GcgR, sequence (P47871 26-477): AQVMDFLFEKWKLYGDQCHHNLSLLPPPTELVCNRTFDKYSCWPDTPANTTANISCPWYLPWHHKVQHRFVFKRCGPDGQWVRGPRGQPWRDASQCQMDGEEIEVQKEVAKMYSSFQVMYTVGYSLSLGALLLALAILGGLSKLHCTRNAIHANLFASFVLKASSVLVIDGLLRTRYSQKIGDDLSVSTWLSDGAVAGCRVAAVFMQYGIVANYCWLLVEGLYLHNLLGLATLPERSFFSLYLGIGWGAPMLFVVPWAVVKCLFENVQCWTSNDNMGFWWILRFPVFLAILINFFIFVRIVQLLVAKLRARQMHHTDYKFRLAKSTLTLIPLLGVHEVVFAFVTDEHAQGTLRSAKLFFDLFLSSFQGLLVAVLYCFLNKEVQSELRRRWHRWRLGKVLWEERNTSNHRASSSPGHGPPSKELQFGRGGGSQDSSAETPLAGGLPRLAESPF
In assay [2] the target is T1, hGLP-1R (Homo sapiens, UniProt P43220). The experiment in a line: Functional cAMP activity in the presence of 1% HSA. The following applies: read-out: cAMP Rel EC50, hGLP-1R.
T1 sequence (P43220 24-463): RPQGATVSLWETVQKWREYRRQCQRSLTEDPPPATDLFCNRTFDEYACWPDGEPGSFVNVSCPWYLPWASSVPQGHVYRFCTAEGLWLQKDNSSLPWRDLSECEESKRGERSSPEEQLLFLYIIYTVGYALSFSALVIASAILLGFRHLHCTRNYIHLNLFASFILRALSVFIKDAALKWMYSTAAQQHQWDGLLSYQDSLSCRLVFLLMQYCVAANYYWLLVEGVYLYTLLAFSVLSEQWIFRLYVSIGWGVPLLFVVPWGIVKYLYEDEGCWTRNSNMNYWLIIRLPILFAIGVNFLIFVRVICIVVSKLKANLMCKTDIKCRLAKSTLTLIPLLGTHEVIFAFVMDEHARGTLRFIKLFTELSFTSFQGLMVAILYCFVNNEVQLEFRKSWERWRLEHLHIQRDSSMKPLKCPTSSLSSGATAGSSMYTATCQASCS
Assay [3] has as its target T2, hGIPR (Homo sapiens, UniProt P48546).
T2 sequence (P48546 22-466): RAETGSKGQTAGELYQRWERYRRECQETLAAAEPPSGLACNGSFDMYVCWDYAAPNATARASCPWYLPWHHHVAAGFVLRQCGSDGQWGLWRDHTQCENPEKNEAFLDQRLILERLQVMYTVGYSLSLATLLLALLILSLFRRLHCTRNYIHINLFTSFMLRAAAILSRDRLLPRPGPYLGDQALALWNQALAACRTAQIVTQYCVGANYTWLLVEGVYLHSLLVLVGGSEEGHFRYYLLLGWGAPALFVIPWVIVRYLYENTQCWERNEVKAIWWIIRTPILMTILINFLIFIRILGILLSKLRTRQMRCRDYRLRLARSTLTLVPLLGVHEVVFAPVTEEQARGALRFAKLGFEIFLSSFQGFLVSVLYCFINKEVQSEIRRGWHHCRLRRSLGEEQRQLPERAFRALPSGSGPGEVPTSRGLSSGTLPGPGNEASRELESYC
Kind of assay: Functional cAMP activity in the presence of 1% HSA. The following applies: read-out: cAMP Rel EC50, hGIPR.

Assay [4] deals with T2, hGIPR. The experiment in a line: Functional cAMP activation in the presence of 0.1% casein (no HSA). The following applies: read-out: Relative cAMP EC50, hGIPR.
Assay [5] has as its target T1, hGLP-1R. Described as above. The following applies: read-out: Relative cAMP EC50, hGLP-1R.
Assay [6] has as its target hGcgR (Homo sapiens, UniProt P47871). The description is as above. To be noted: read-out: Relative cAMP EC50, hGcgR.
Where [7] appears, read: in the presence of 0.1% casein (no HSA), geometric mean.
Setting [8] is: HEK-293 clonal cell line, 1% HSA, geometric mean of relative EC50.
The mark [9] stands for this setting: in the presence of 0.1% casein (no HSA), geometric mean of relative EC50.
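Throughout, for Relative cAMP EC50, hGIPR: intracellular cAMP rise after 30 min at 37 °C read by HTRF against a standard curve, scaled between buffer alone (0%) and top control ligand concentration (100%), four-parameter fit.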
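Throughout, for Relative cAMP EC50, hGLP-1R: intracellular cAMP rise after 30 min at 37 °C read by HTRF, normalized between buffer only (0%) and maximal control ligand (100%), four-parameter variable-slope fit.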
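Throughout, for Relative cAMP EC50, hGcgR: intracellular cAMP rise after 30 min at 37 °C, read by HTRF against a cAMP standard curve, scaled from buffer only (0%) to maximal control ligand response (100%).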

hGcgR, sequence (P47871 26-477): as the sequence (P47871 26-477) above

Turning to `CC[C@H](C)[C@H](NC(=O)[C@H](Cc1ccccc1)NC(=O)[C@H](CCCN)NC(=O)C(C)(C)NC(=O)[C@H](CCC(N)=O)NC(=O)[C@H](C)NC(=O)[C@H](CCCCNC(=O)CC[C@H](NC(=O)CC[C@H](NC(=O)CCCCCCCCCCCCCCCCC(=O)O)C(=O)O)C(=O)O)NC(=O)[C@H](CCCN)NC(=O)[C@H](CC(=O)O)NC(=O)[C@H](CC(C)C)NC(=O)[C@](C)(CC(C)C)NC(=O)[C@@H](NC(=O)[C@](C)(CO)NC(=O)[C@H](Cc1ccncc1)NC(=O)[C@H](CC(=O)O)NC(=O)[C@H](CO)NC(=O)[C@@H](NC(=O)[C@](C)(Cc1ccccc1F)NC(=O)[C@@H](NC(=O)CNC(=O)[C@H](CCC(N)=O)NC(=O)C(C)(C)NC(=O)[C@@H](N)Cc1ccc(O)cc1)[C@@H](C)O)[C@@H](C)O)[C@@H](C)CC)C(=O)N[C@H](CCC(=O)O)C(=O)N[C@@](C)(Cc1ccc(O)cc1)C(=O)N[C@@H](CC(C)C)C(=O)N[C@@H](CO)C(=O)N[C@@H](CCC(=O)O)C(=O)NCC(=O)NCC(=O)N1CCC[C@H]1C(=O)N[C@@H](CO)C(=O)N[C@@H](CO)C(=O)NCC(=O)N[C@@H](CCC(=O)O)C(=O)N1CCC[C@H]1C(=O)N1CCC[C@H]1C(=O)N1CCC[C@H]1C(=O)N[C@@H](CCC(=O)O)C(N)=O` [Example 438] (H-Y[Aib]QGT[αMePhe(2-F)]TSD[4Pal][αMeS]I[αMeL]LD[Orn]K([γGlu-γGlu-C18 diacid])AQ[Aib][Orn]FI[dE][αMeY]LSEGGPSSGEPPPE-NH2), the EC50 in assay [1] was 431 nM; in assay [2], 41.1 nM; in assay [3] it was 53.8 nM; in assay [4], 0.225 nM; in assay [5], 0.815 nM; in assay [6], 3.62 nM.

Regarding “H-Y[Aib]QGT[αMePhe(2-F)]TSD[4Pal]SI[αMeL]LD[Orn]K([AEEA-γGlu-C18 diacid])AQ[αMe4Pal]EFI[dE][αMeY]LLEGGPSSGEPPPSGS-NH2 [Example 645]”, the EC50 is 398 nM in assay [1]; 76.3 nM in assay [2]; 0.863 nM in assay [3]; 0.00724 nM in assay [4]; 0.596 nM in assay [5]; 3.25 nM in assay [6].

In the case of `CC[C@H](C)[C@H](NC(=O)[C@H](Cc1ccccc1)NC(=O)[C@H](C)NC(=O)C(C)(C)NC(=O)[C@H](CCC(N)=O)NC(=O)[C@H](C)NC(=O)[C@H](CCCCNC(=O)COCCOCCNC(=O)CC[C@H](NC(=O)CCCCCCCCCCCCCCCCC(=O)O)C(=O)O)NC(=O)[C@H](CCCCN)NC(=O)[C@H](CC(=O)O)NC(=O)[C@H](CC(C)C)NC(=O)[C@H](CC(C)C)NC(=O)[C@H](CCC(=O)O)NC(=O)[C@](C)(CO)NC(=O)[C@H](Cc1ccc(O)cc1)NC(=O)[C@H](CC(=O)O)NC(=O)[C@H](CO)NC(=O)[C@@H](NC(=O)[C@](C)(Cc1ccccc1F)NC(=O)[C@@H](NC(=O)CNC(=O)[C@H](CCC(N)=O)NC(=O)C(C)(C)NC(=O)[C@@H](N)Cc1ccc(O)cc1)[C@@H](C)O)[C@@H](C)O)C(=O)N[C@@H](CCC(=O)O)C(=O)N[C@@H](Cc1ccc(O)cc1)C(=O)N[C@@H](CC(C)C)C(=O)N[C@@H](CCC(=O)O)C(=O)N[C@@H](CCC(=O)O)C(=O)NCC(=O)NCC(=O)N1CCC[C@H]1C(=O)N[C@@H](CO)C(=O)N[C@@H](CO)C(=O)NCC(=O)N[C@@H](C)C(=O)N1CCC[C@H]1C(=O)N1CCC[C@H]1C(=O)N1CCC[C@H]1C(=O)N[C@@H](CCC(=O)O)C(N)=O` [Example 467] (H-Y[Aib]QGT[αMePhe(2-F)]TSDY[αMeS]ELLDKK([AEEA-γGlu-C18 diacid])AQ[Aib]AFIEYLEEGGPSSGAPPPE-NH2), the 50% effective concentration (EC50) in assay [1] stood at 850 nM; in assay [2], 36.4 nM; in assay [3] it was 10.7 nM; in assay [4] it was 0.0855 nM; in assay [5], 0.358 nM; in assay [6], 9.34 nM.

On to “H-Y[Aib]QGTFTSDYSI[αMeL]LDKQAAK([AEEA-AEEA-γGlu-C20 diacid])QFVEWLIA[Aib]GPSSGEPPPGEG-NH2 [Example 333]”, for which the half-maximal effective concentration (EC50) in assay [1] amounted to 1410 nM; in assay [2], 182 nM; in assay [3] it was 36.3 nM; in assay [4] (setting [7]) it was 0.265 nM; in assay [5] (setting [7]) it was 0.705 nM; in assay [6] (setting [7]) it was 7.09 nM.

On to “Y[Aib]QGTFTSD[4Pal]SQ[αMeL]LD[Orn]K([γGlu-γGlu-C18 diacid])AQ[αMe4Pal]AFIEYLIE[Aib]GPSSGAPPPSGS-NH2 [Example 935]”, for which the EC50 in assay [1] came out at 659 nM; in assay [2], 172 nM; in assay [3], 16.9 nM; in assay [4] (setting [7]), 0.123 nM; in assay [5] (setting [7]), 1.71 nM; in assay [6] (setting [7]), 4.04 nM.

For “Y[Aib]QGT[αMeF]TSD[4Pal][αMeS]I[αMeL]LD[Orn]K([AEEA-γGlu-C18 diacid])AQ[αMe4Pal]EFI[dE][αMeY]LIEGGPSSGEPPPSGE-NH2 [Example 1165]”, the EC50 amounted to 358 nM in assay [1]; 87.7 nM in assay [2]; 1.36 nM in assay [3]; 0.0121 nM in assay [4] (setting [7]); 0.632 nM in assay [5] (setting [7]); 2.68 nM in assay [6] (setting [7]).

In the case of “H-Y[Aib]QGTFTSDFS[Orn][αMeL]LDKK([AEEA-γGlu-C18 diacid])AQ[αMe4Pal]AFIEYLIE[Aib]GPSSGAPPPSGS-NH2 [Example 811]”, the EC50 amounted to 175 nM in assay [1]; 246 nM in assay [2]; 25.8 nM in assay [3]; 0.14 nM in assay [4] (setting [7]); 1.48 nM in assay [5] (setting [7]); 0.724 nM in assay [6] (setting [7]).

“H-Y[Aib]QGT[αMePhe(2-F)]TSD[4Pal]SI[αMeL]LDKK([γGlu-γGlu-C18 diacid])AQ[Aib][Orn]FIEYLSEGGPSSGEPPPEGSEE-NH2 [Example 651]”: the EC50 in assay [1] (setting [8]) was determined as 639 nM; in assay [2] (setting [8]) it was 53.9 nM; in assay [3] (setting [8]) it was 6.3 nM; in assay [4] (setting [9]), 0.112 nM; in assay [5] (setting [9]) it was 1.02 nM; in assay [6] (setting [9]), 10.7 nM.

Turning to “H-Y[Aib]QGTFTSDFS[Orn][αMeL]LDKK([AEEA-γGlu-C18 diacid])AQ[Aib]AFIEWLLEGGSSSGAPPPGGT-NH2 [Example 272]”, the half-maximal effective concentration (EC50) in assay [1] was 1540 nM; in assay [2], 486 nM; in assay [3], 36.3 nM; in assay [4] (setting [7]) it was 0.254 nM; in assay [5] (setting [7]), 2.62 nM; in assay [6] (setting [7]), 7.91 nM.

For the molecule “Y[Aib]QGT[αMePhe(2-F)]TSD[4Pal][αMeS]I[αMeL]LD[Orn]K([γGlu-γGlu-C18 diacid])AQ[Aib][Orn]FI[dE][αMeY]LQEGGPSSGEPPPEGTE-NH2 [Example 503]”, the EC50 in assay [1] is 233 nM; in assay [2], 26.1 nM; in assay [3], 2.02 nM; in assay [4], 0.0518 nM; in assay [5], 0.525 nM; in assay [6] it was 3.98 nM.

In the case of `CC[C@H](C)[C@H](NC(=O)[C@H](Cc1ccccc1)NC(=O)[C@H](CCCN)NC(=O)C(C)(C)NC(=O)[C@H](CCC(N)=O)NC(=O)[C@H](C)NC(=O)[C@H](CCCCNC(=O)CC[C@H](NC(=O)CC[C@H](NC(=O)CCCCCCCCCCCCCCCCC(=O)O)C(=O)O)C(=O)O)NC(=O)[C@H](CCCN)NC(=O)[C@H](CC(=O)O)NC(=O)[C@H](CC(C)C)NC(=O)[C@](C)(CC(C)C)NC(=O)[C@@H](NC(=O)[C@H](CO)NC(=O)[C@H](Cc1ccncc1)NC(=O)[C@H](CC(=O)O)NC(=O)[C@H](CO)NC(=O)[C@@H](NC(=O)[C@](C)(Cc1ccccc1F)NC(=O)[C@@H](NC(=O)CNC(=O)[C@H](CCC(N)=O)NC(=O)C(C)(C)NC(=O)[C@@H](N)Cc1ccc(O)cc1)[C@@H](C)O)[C@@H](C)O)[C@@H](C)CC)C(=O)N[C@H](CCC(=O)O)C(=O)N[C@@](C)(Cc1ccc(O)cc1)C(=O)N[C@@H](CC(C)C)C(=O)N[C@@H](CC(C)C)C(=O)N[C@@H](CCC(=O)O)C(=O)NCC(=O)NCC(=O)N1CCC[C@H]1C(=O)N[C@@H](CO)C(=O)N[C@@H](CO)C(=O)NCC(=O)N[C@@H](CCC(=O)O)C(=O)N1CCC[C@H]1C(=O)N1CCC[C@H]1C(=O)N1CCC[C@H]1C(=O)N[C@@H](CO)C(N)=O` [Example 371], the concentration for a half-maximal effect (EC50) in assay [1] came out at 463 nM; in assay [2], 47.4 nM; in assay [3], 1.47 nM; in assay [4] (setting [7]), 0.0128 nM; in assay [5] (setting [7]), 0.327 nM; in assay [6] (setting [7]) it was 4.46 nM.

The values are drawn from patent US20240270821A1, “GIP/GLP1/GCG TRI-RECEPTOR AGONISTS AND USES THEREOF” (priority 2023, published 2024).
